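Tested at 5 concentrations; 48 h exposure; 96-well plates; endpoints linearly interpolated, else capped at highest concentration. Abbreviation: GI50, concentration required for 50% inhibition of growth.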 The source made the active and inactive calls. Rule as the data show it: active = GI50 up to about 1.1 µM and inactive = higher.

Some test systems named below: NCI-H522; SK-OV-3; SNB-19; OVCAR-4; OVCAR-5; COLO 205; EKVX; KM12; Malme-3M; SF-539; IGROV-1; 786-0; RPMI-8226; DLD-1; HOP-92; MCF7; Hs-578T; T47D; NCI-H226; HOP-62.
Holding throughout (test): NCI-60 cell line screen, 48 h

For `c1ccc2c(c1)c1ccccc1c1n[se]nc21`, the GI50 is > 100 µM (inactive) in the experiment with NCI-H522; 26 µM (inactive) in the experiment with SK-OV-3; 35.6 µM (inactive) in the experiment with SNB-19; > 100 µM (inactive) in the experiment with OVCAR-4; 35.6 µM (inactive) with OVCAR-5; > 100 µM (inactive) with COLO 205. Also, the GI50 in the experiment on EKVX is 87.9 µM (inactive); in the experiment on KM12, > 100 µM (inactive); in the experiment with Malme-3M, > 100 µM (inactive); with SF-539, 34.6 µM (inactive); in the experiment with IGROV-1, 36.1 µM (inactive); in the experiment with 786-0 it was 39 µM (inactive). For the same compound, the GI50 with RPMI-8226 and with DLD-1 was > 100 µM (inactive) each time.

Regarding `Cn1c(SCc2ccc([N+](=O)[O-])cc2)nnc1C12CC3CC(CC(C3)C1)C2`, the GI50 in the experiment with NCI-H522, in the experiment on HOP-92, in the experiment with MCF7, with SK-OV-3, in the experiment on SNB-19 and in the experiment with OVCAR-4 was > 10 µM (inactive) in each case. In addition, the GI50 with OVCAR-5, in the experiment with COLO 205, with Hs-578T, with EKVX, with T47D and in the experiment with KM12 was > 10 µM (inactive) each time. Further, the GI50 with Malme-3M, in the experiment on SF-539, with IGROV-1, in the experiment with 786-0, with NCI-H226 and in the experiment with RPMI-8226 was > 10 µM (inactive) throughout. The GI50 in the experiment on HOP-62 is > 10 µM (inactive).

For `COc1ccc(C2SC(=N)Nc3c2c(C)nn3C(=O)c2ccc(Cl)cc2)cc1` (centres undefined), the GI50 in the experiment on NCI-H522, with HOP-92, with MCF7, with SK-OV-3, in the experiment on SNB-19 and in the experiment with OVCAR-4 was > 10 µM (inactive) throughout. Also, the GI50 in the experiment on OVCAR-5, with COLO 205, in the experiment with Hs-578T, with EKVX, with T47D and in the experiment on KM12 was > 10 µM (inactive) each time. Besides, the GI50 in the experiment with Malme-3M, with SF-539, in the experiment with IGROV-1, in the experiment on 786-0, in the experiment on NCI-H226 and in the experiment on RPMI-8226 was > 10 µM (inactive) throughout. Moreover, the GI50 in the experiment with HOP-62 was > 10 µM (inactive).

`Nc1nc(N)c2ncn(-c3ccc(Cl)c(Cl)c3)c2n1`: the GI50 with NCI-H522 is 28.4 µM (inactive); with HOP-92, 52.7 µM (inactive); with MCF7, 40.1 µM (inactive); in the experiment on SK-OV-3, 24.9 µM (inactive); in the experiment with SNB-19, 57 µM (inactive); in the experiment with OVCAR-4 it was 33.3 µM (inactive). Moreover, the GI50 is 42.7 µM (inactive) in the experiment with OVCAR-5; 14.9 µM (inactive) in the experiment on COLO 205; 15 µM (inactive) with Hs-578T; 25.5 µM (inactive) with EKVX; 42.1 µM (inactive) in the experiment on T47D; 25.4 µM (inactive) in the experiment with KM12. The GI50 is 17.9 µM (inactive) with Malme-3M; 21 µM (inactive) in the experiment with SF-539; 16.2 µM (inactive) in the experiment with IGROV-1; 14.1 µM (inactive) in the experiment with 786-0; 35.2 µM (inactive) in the experiment with NCI-H226; 22.4 µM (inactive) in the experiment on RPMI-8226. Besides, in the experiment on HOP-62, the GI50 is 29.6 µM (inactive).

Turning to `Cc1c(C)c(S(=O)(=O)N(CCCCCCN)OCCCN)c(C)c2c1OC(C)(C)CC2`, the GI50 in the experiment on NCI-H522 is 4.7 µM (inactive); with HOP-92, 4.16 µM (inactive); in the experiment on MCF7, 9.59 µM (inactive); in the experiment with SK-OV-3, 10.1 µM (inactive); in the experiment on SNB-19, 3.96 µM (inactive); in the experiment on OVCAR-4 it was 2.49 µM (inactive). In addition, the GI50 in the experiment with OVCAR-5 is > 28.7 µM (inactive); with COLO 205, 4.29 µM (inactive); with Hs-578T, 3.72 µM (inactive); with EKVX, 6.65 µM (inactive); in the experiment with T47D, 12.1 µM (inactive); in the experiment on KM12 it was 1.91 µM (inactive). The GI50 in the experiment with Malme-3M is 2.15 µM (inactive); with SF-539, > 24.1 µM (inactive); in the experiment with IGROV-1, 2 µM (inactive); with 786-0, 3.22 µM (inactive); in the experiment with NCI-H226, 5.37 µM (inactive); in the experiment with RPMI-8226, 4.39 µM (inactive). Moreover, the GI50 with HOP-62 was 4.36 µM (inactive).

Regarding `CC(O)(C(=O)N(O)c1ccc(Cl)cc1)c1ccc(Cl)cc1` (centres undefined), the GI50 is 18.6 µM (inactive) in the experiment with NCI-H522; 20.3 µM (inactive) in the experiment on HOP-92; 35.4 µM (inactive) in the experiment with MCF7; 33.1 µM (inactive) in the experiment on SK-OV-3; 48.2 µM (inactive) in the experiment with SNB-19; 37.9 µM (inactive) with OVCAR-4. For the same compound, the GI50 was 37.9 µM (inactive) in the experiment on OVCAR-5; 18.1 µM (inactive) with COLO 205; 16.9 µM (inactive) with Hs-578T; 39.3 µM (inactive) in the experiment with EKVX; 31.6 µM (inactive) with T47D; 12.8 µM (inactive) in the experiment with KM12. Moreover, the GI50 was 28.1 µM (inactive) in the experiment with Malme-3M; 32.5 µM (inactive) in the experiment on SF-539; 19.9 µM (inactive) with IGROV-1; 28.8 µM (inactive) with 786-0; 40.6 µM (inactive) in the experiment with NCI-H226; 11.2 µM (inactive) in the experiment on RPMI-8226. Further, in the experiment with HOP-62, the GI50 was 26.7 µM (inactive).

`CN(C)CC1CN(C(=O)Nc2ccccc2)C(=N)O1` (centres undefined): the GI50 with NCI-H522, in the experiment with HOP-92, in the experiment on MCF7, with SK-OV-3, in the experiment on SNB-19 and in the experiment with OVCAR-4 was > 100 µM (inactive) in each case. The GI50 with OVCAR-5, in the experiment with COLO 205, in the experiment with Hs-578T, in the experiment on EKVX, in the experiment with T47D and with KM12 was > 100 µM (inactive) throughout. The GI50 in the experiment with Malme-3M, in the experiment with SF-539, with IGROV-1, with 786-0, in the experiment with NCI-H226 and in the experiment with RPMI-8226 was > 100 µM (inactive) in each case. Also, the GI50 in the experiment with HOP-62 is > 100 µM (inactive).

With `CCOC(=O)c1nc2ccc(C(F)(F)F)cc2nc1NCc1ccc(OC)cc1`, the GI50 with NCI-H522 was 11.9 µM (inactive); with HOP-92, 47.5 µM (inactive); in the experiment on MCF7, 43.2 µM (inactive); in the experiment on SK-OV-3 it was > 100 µM (inactive); with SNB-19, > 100 µM (inactive); in the experiment on OVCAR-4, 63.7 µM (inactive). In addition, the GI50 in the experiment on OVCAR-5 is > 100 µM (inactive); in the experiment with COLO 205, 93.8 µM (inactive); with Hs-578T, 99.5 µM (inactive); with EKVX, > 100 µM (inactive); with T47D, 80.7 µM (inactive); with KM12, 36 µM (inactive). Also, the GI50 with Malme-3M is 34.4 µM (inactive); with SF-539, > 100 µM (inactive); in the experiment on IGROV-1 it was > 100 µM (inactive); with 786-0 it was > 100 µM (inactive); in the experiment on NCI-H226 it was > 100 µM (inactive); in the experiment with RPMI-8226, 69.8 µM (inactive). The GI50 in the experiment with HOP-62 was 98.9 µM (inactive).

Take `CC1=NN(C(=O)c2ccncc2)C(=O)C1/N=N/c1ccc2ccccc2c1` (centres undefined): the GI50 with NCI-H522 was > 100 µM (inactive); in the experiment with HOP-92 it was > 100 µM (inactive); in the experiment with MCF7 it was 5.32 µM (inactive); in the experiment on SK-OV-3, > 100 µM (inactive); in the experiment on SNB-19, > 100 µM (inactive); in the experiment on OVCAR-4, > 100 µM (inactive). For the same compound, the GI50 was > 60.7 µM (inactive) in the experiment on OVCAR-5; 18.7 µM (inactive) in the experiment on COLO 205; 5.2 µM (inactive) in the experiment with Hs-578T; 2.71 µM (inactive) in the experiment on EKVX; > 100 µM (inactive) in the experiment with T47D; 17.1 µM (inactive) in the experiment with KM12. In addition, the GI50 in the experiment on Malme-3M is > 72.6 µM (inactive); in the experiment with SF-539 it was > 96.8 µM (inactive); with IGROV-1, 22.9 µM (inactive); in the experiment with 786-0 it was > 100 µM (inactive); in the experiment with NCI-H226 it was > 100 µM (inactive); with RPMI-8226, > 50.6 µM (inactive). Also, in the experiment on HOP-62, the GI50 is > 100 µM (inactive).

For `O=C(O)C1=C(C(=O)O)N(c2ccncc2)C(c2ccco2)=CC1c1ccccc1[N+](=O)[O-]` (centres undefined), the GI50 with NCI-H522 is 1.77 µM (inactive); in the experiment on HOP-92 it was 7.06 µM (inactive); in the experiment with MCF7, 2.65 µM (inactive); in the experiment with SK-OV-3 it was 18 µM (inactive); with SNB-19, 12.9 µM (inactive); with OVCAR-4, 13 µM (inactive). Also, the GI50 is 15 µM (inactive) in the experiment with OVCAR-5; 14.2 µM (inactive) in the experiment with COLO 205; 16.7 µM (inactive) in the experiment with Hs-578T; 11.2 µM (inactive) with EKVX; 7.82 µM (inactive) in the experiment on T47D; 1.62 µM (inactive) in the experiment on KM12. For the same compound, the GI50 in the experiment with Malme-3M was 0.925 µM (active); in the experiment on SF-539 it was 2.11 µM (inactive); in the experiment with IGROV-1, 1.85 µM (inactive); with 786-0 it was 2.04 µM (inactive); in the experiment on NCI-H226 it was 9.59 µM (inactive); in the experiment with RPMI-8226, 2.79 µM (inactive). The GI50 in the experiment on HOP-62 was 13.4 µM (inactive).

Consider `Cc1nnc2ccccc2c1O`, for which the GI50 in the experiment on NCI-H522, in the experiment with HOP-92, with MCF7, with SK-OV-3, with SNB-19 and in the experiment with OVCAR-4 was > 100 µM (inactive) each time. Besides, the GI50 in the experiment with OVCAR-5, with COLO 205, in the experiment with Hs-578T, with EKVX, with T47D and with KM12 was > 100 µM (inactive) in each case. The GI50 with Malme-3M, in the experiment with SF-539, in the experiment with IGROV-1, in the experiment on 786-0, in the experiment with NCI-H226 and in the experiment on RPMI-8226 was > 100 µM (inactive) each time. In addition, the GI50 in the experiment on HOP-62 was > 100 µM (inactive).

The values above are taken from ChEMBL document CHEMBL1201862, “PubChem BioAssay data set” (2004).
